What was measured:
[1] = test system: GDF8 signaling (GDF pSMAD, MPC11); test: AlphaScreen SureFire SMAD3 (p-Ser423/425) assay, inhibition of GDF8 signaling; assay type: cell-based; settings: Mus musculus, MPC-11, p-SMAD-3 (Ser423/425) in cell lysate after GDF8 stimulation
Description: (§1) Example 2: AlphaScreen® SureFire® SMAD3 (p-Ser423/425) Assay
(§2) The p-SMAD-3 (Ser423/425) SureFire® assay has been designed to measure the phosphorylation of endogenous cellular p-SMAD-3 (Ser423/425) in cell lysates and is a system for the screening of both modulators of receptor activation (e.g. agonists and antagonists) as well as agents acting intracellularly, such as small molecule inhibitors of upstream events. The assay will measure p-SMAD-3 (Ser423/425) activation by either cloned or endogenous receptors, and can be applied to primary cells.
(§3) 1× Lysis buffer: 1 ml of 5× Lysis buffer was diluted with 4 ml of sterile water. After dilution, excess 1× Lysis buffer can be frozen and thawed up to 5 times without loss in activity.
(§4) P-SMAD-3 (Ser423/425) SureFire® Assay Protocols
(§5) Step A: Preparation of Buffers
(§6) Activation buffer: The buffer was warmed slowly to 37° C. and gently mixed to re-suspend. Activation buffer can be stored at room temperature with no loss in activity.
(§7) Reaction buffer: The buffer was kept at 4° C. while in use.
(§8) AlphaScreen® Protein A IgG Kit: The kit was stored at 4° C. in the dark.
(§9) Reaction buffer+Activation buffer+AlphaScreen® Acceptor beads: Reaction buffer (40 parts), Activation Buffer (10 parts) and Acceptor beads (1 part) were mixed and the mixture was stored at room temperature and used the same day. Mixture was added to 384-well plates; excess mixturewas discarded.
(§10) Dilution buffer+AlphaScreen® Donor beads: Dilution buffer (20 parts) and Donor beads (1 part) were mixed and the mixture was stored at room temperature and used the same day. Excess mixture was discarded.
(§11) Assay control samples: After reconstitution in 250 μl of water, lysates were at −20° C. in single use aliquots.
(§12) Step B: Preparation of Samples and Cells
(§13) 96-well Assay Protocol for 293FT and RMS13 adherent cells can be carried out manually or in high throughput with liquid handling robots.
(§14) The cells (80 μL of cells for 96 well plates) were plated in collagen coated tissue culture plates in RPMI or FreeStyle medium (Invitrogen) and incubated overnight. For manual analysis, 6 plates for GDF8, 6 plates for TGFβ, and optionally 6 plates for Alk5ca(ALKS constitutively active) were used.
(§15) The compound dilution plates were prepared as follows: 12 μL of DMSO was transferred into first column of 96-well plate, and 16 μL of DMSO was transferred into columns 2-12 of the 96-well plate. 12 μL of compound solution was transferred into first column of the DMSO-containing 96-well plate. Three-fold dilution was performed up to column 10 of the DMSO-containing 96-well plate.
(§16) Step C: Treatment and Analysis
(§17) The plate containing cells were treated with compounds for about 10 minutes, and then ligand was added. GDF8 or TGFb was added to plates to stimulate. 293FL cells were stimulatedfor 90 minutes at 37° C.; and RMS13 cells were stimulated for 60 minutes at 37° C. The medium was then removed from the cells, and 1× Lysis Buffer (about 25 μL) was added and the plate was gently agitated on plate shaker for 5-10 minutes.
(§18) The lysate (5 μL) was then placed into 384-well shallow plates avoiding the generation of bubbles. To this, the Reaction Buffer+Activation Buffer+AlphaScreen® Acceptor beadsmixture (5 μL) was added. The plate was sealed with adhesive cover and shielded from light (e.g., with metal foil), and agitated gently on plate shaker for 2 hours at room temperature.
(§19) Dilution buffer+AlphaScreen® Donor beads (2 μL) was then added, and the plate was intubated on the plate shaker for an additional 1½ hours. After completion, the plate was read on Synergy-4 or Enspire plate reader, using AlphaScreen® pSMAD3® settings.
(§20) Representative results for inhibition of GDF8 (data=GDF pSMAD (MPC11) (μM)) and TGF-β (data=TGF-β pSMAD (MPC-11) (μM)) signaling are shown in Table 1: […]

[2] = test system: TGF-β signaling (TGF-β pSMAD, MPC-11); test: AlphaScreen SureFire SMAD3 (p-Ser423/425) assay, inhibition of TGF-β signaling; assay type: cell-based; settings: Mus musculus, p-SMAD-3 (Ser423/425) in cell lysate after TGF-β stimulation
Description: as §1, §2, §3, §4, §5, §6, §7, §8, §9, §10, §11, §12, §13, §14, §15, §16, §17, §18, §19, §20

| Structure (SMILES) | IC50 [1] [nM] | IC50 [2] [nM] |
| --- | --- | --- |
| Fc1ccc(-c2nn3c(c2-c2ccc4ncccc4c2)CCC3)cc1 [Compound 45, 6-(2-(4-Fluorophenyl)-5,6-dihydro-4H-pyrrolo[1,2-b]pyrazol-3-yl)quinoline] | 1080 | 12600 |
| Cc1cc(-c2nn3c(c2-c2ccc4cn[nH]c4c2)CCC3)c(F)cc1F [Compound 180, 6-(2-(2,4-Difluoro-5-methylphenyl)-5,6-dihydro-4H-pyrrolo[1,2-b]pyrazol-3-yl)-1H-indazole] | 587 | 1750 |
| Fc1ccccc1-c1nn2c(c1-c1ccc3cn[nH]c3c1)CCC2 [Compound 134, 6-(2-(2-Fluorophenyl)-5,6-dihydro-4H-pyrrolo[1,2-b]pyrazol-3-yl)-1H-indazole] | 901 | 6060 |
| COc1c(F)ccc(-c2nn3c(c2-c2ccc4[nH]ncc4c2)CCC3)c1F [Compound 161, 5-(2-(2,4-Difluoro-3-methoxyphenyl)-5,6-dihydro-4H-pyrrolo[1,2-b]pyraozl-3-yl)-1H-indazole] | 626 | 1440 |
| COc1cccc(-c2nn3c(c2-c2ccc4ncccc4c2)OCC3)c1 [Compound 75, 6-(3-Methoxyphenyl)-7-(quinolin-6-yl)-2,3-dihydropyrazolo[5,1-b]oxazole] | 1240 | 7240 |
| FC(F)(F)c1cccc(-c2nn3c(c2-c2ccc4ncsc4c2)OCC3)c1 [Compound 62, 7-(Benzo[d]thiazol-6-yl)-6-(3-trifluoromethylphenyl)-2,3-dihydropyrazolo[5,1-b]oxazole] | 272 | 787 |
| Fc1ccc(-c2nn3c(c2-c2ccc4ncccc4c2)CCC3)c(F)c1 [Compound 95, 6-(2-(2,4-Difluorophenyl)-5,6-dihydro-4H-pyrrolo[1,2-b]pyrazol-3-yl)quinoline] | 559 | 3740 |
| Fc1cccc(-c2nn3c(c2-c2ccc4cn[nH]c4c2)CCC3)c1 [Compound 78, 6-(2-(3-Fluorophenyl)-5,6-dihydro-4H-pyrrolo[1,2-b]pyrazol-3-yl)-1H-indazole] | 812 | 2300 |
| FC(F)(F)c1cccc(-c2nn3c(c2-c2ccc4ncccc4c2)OCC3)c1 [Compound 63, 7-(Quinolin-6-yl)-6-(3-trifluoromethylphenyl)-2,3-dihydropyrazolo[5,1-b]oxazole] | 1990 | 6030 |
| Fc1ccc(-c2nn3c(c2-c2ccc4ncsc4c2)CCC3)cc1OC(F)(F)F [Compound 152, 6-(2-(4-Fluoro-3-trifluoromethoxyphenyl)-5,6-dihydro-4H-pyrrolo[1,2-b]pyrazol-3-yl)benzo[d]thiazole] | 486 | 1750 |
| Fc1ccc(-c2nn3c(c2-c2ccc4nccn4c2)CCC3)cc1F [Compound 86, 6-(2-(3,4-Difluorophenyl)-5,6-dihydro-4H-pyrrolo[1,2-b]pyrazol-3-yl)imidazo[1,2-a]pyridine] | 272 | 926 |
| FC(F)(F)c1cccc(-c2nn3c(c2-c2ccc4nccnc4c2)OCC3)c1 [Compound 64, 7-(Quinoxalin-6-yl)-6-(3-trifluoromethylphenyl)-2,3-dihydropyrazolo[5,1-b]oxazole] | 337 | 1480 |
| COc1ccc(-c2nn3c(c2-c2ccc4ncccc4c2)CCC3)cc1 [Compound 101, 6-(2-(4-Methoxyphenyl)-5,6-dihydro-4H-pyrrolo[1,2-b]pyrazol-3-yl)quinoline] | 2450 |  |

Stronger by IC50 [1], values ahead:

| IC50 [1] [nM] | IC50 [2] [nM] | Structure (SMILES) |
| --- | --- | --- |
| 105 | 1020 | Fc1ccc(-c2nn3c(c2-c2ccc4[nH]ncc4c2)CCC3)c(F)c1Cl [Compound 155, 5-(2-(3-Chloro-2,4-difluorophenyl)-5,6-dihydro-4H-pyrrolo[1,2-b]pyrazol-3-yl)-1H-indazole] |
| 77 | 482 | Fc1ccc(-c2nn3c(c2-c2ccc4nccn4c2)CCC3)c(F)c1 [Compound 94, 6-(2-(2,4-Difluorophenyl)-5,6-dihydro-4H-pyrrolo[1,2-b]pyrazol-3-yl)imidazo[1,2-a]pyridine] |
| 133 | 685 | Fc1ccc(-c2nn3c(c2-c2ccc4nccn4c2)CCC3)c(F)c1Cl [Compound 157, 6-(2-(3-Chloro-2,4-difluorophenyl)-5,6-dihydro-4H-pyrrolo[1,2-b]pyrazol-3-yl)imidazo[1,2-a]pyridine] |
| 97.9 | 350 | FC(F)(F)c1cccc(-c2nn3c(c2-c2ccc4ncsc4c2)CCC3)c1 [Compound 35, 6-(2-(3-Trifluoromethylphenyl)-5,6-dihydro-4H-pyrrolo[1,2-b]pyrazol-3-yl)benzo[d]thiazole] |
| 24 | 87.6 | Cn1cnc2ccc(-c3c(-c4cc(F)c(F)cc4F)nn4c3CCC4)cc21 [Compound 114, 1-Methyl-6-(2-(2,4,5-trifluorophenyl)-5,6-dihydro-4H-pyrrolo[1,2-b]pyrazol-3-yl)-1H-benzo[d]imidazole] |
| 34 | 112 | Cc1cc(-c2nn3c(c2-c2ccc4ncnn4c2)CCC3)ccc1F [Compound 105, 6-(2-(4-Fluoro-3-methylphenyl)-5,6-dihydro-4H-pyrrolo[1,2-b]pyrazol-3-yl)-[1,2,4]triazolo[1,5-a]pyridine] |
| 121 | 366 | Cc1cc(-c2nn3c(c2-c2ccc4nccn4c2)CCC3)ccc1F [Compound 20, 6-(2-(4-Fluoro-3-methylphenyl)-5,6-dihydro-4H-pyrrolo[1,2-b]pyrazol-3-yl)imidazo[1,2-a]pyridine] |
| 159 | 600 | COc1cccc(-c2nn3c(c2-c2ccc4ncnn4c2)CCC3)c1 [Compound 106, 6-(2-(3-Methoxyphenyl)-5,6-dihydro-4H-pyrrolo[1,2-b]pyrazol-3-yl)-[1,2,4]triazolo[1,5-a]pyridine] |
| 74 | 212 | Fc1cc(F)c(-c2nn3c(c2-c2ccc4nccnc4c2)CCC3)cc1Cl [Compound 191, 6-(2-(5-Chloro-2,4-difluorophenyl)-5,6-dihydro-4H-pyrrolo[1,2-b]pyrazol-3-yl)quinoxaline] |
| 156 | 668 | Fc1ccc(-c2nn3c(c2-c2ccc4nccnc4c2)CCC3)c(F)c1 [Compound 96, 6-(2-(2,4-Difluorophenyl)-5,6-dihydro-4H-pyrrolo[1,2-b]pyrazol-3-yl)quinoxaline] |
| 156 | 1490 | Fc1cc(F)c(-c2nn3c(c2-c2ccc4ncccc4c2)CCC3)cc1F [Compound 117, 6-(2-(2,4,5-Trifluorophenyl)-5,6-dihydro-4H-pyrrolo[1,2-b]pyrazol-3-yl)quinoline] |
| 233 | 664 | COc1cccc(-c2nn3c(c2-c2ccc4ncn(C)c4c2)OCC3)c1 [Compound 72, 6-(3-Methoxyphenyl)-7-(1-methyl-1H-benzo[d]imidazol-6-yl)-2,3-dihydropyrazolo[5,1-b]oxazole] |
| 206 | 847 | COc1cccc(-c2nn3c(c2-c2ccc4[nH]ncc4c2)CCC3)c1 [Compound 27, 5-(2-(3-Methoxyphenyl)-5,6-dihydro-4H-pyrrolo[1,2-b]pyrazol-3-yl)-1H-indazole] |
| 22.6 | 57.9 | Cc1cccc(-c2nn3c(c2-c2ccc4ncn(C)c4c2)OCC3)c1 [Compound 38, 7-(1-Methyl-1H-benzo[d]imidazol-6-yl)-6-(m-tolyl)-2,3-dihydropyrazolo[5,1-b]oxazole] |
| 262 | 840 | Fc1ccc(-c2nn3c(c2-c2ccc4[nH]ncc4c2)CCC3)c(F)c1 [Compound 91, 5-(2-(2,4-Difluorophenyl)-5,6-dihydro-4H-pyrrolo[1,2-b]pyrazol-3-yl)-1H-indazole] |

From patent US10822337B2, “TGF-β inhibitorC” (Rigel Pharmaceuticals, Inc., priority 2015, dated 2020)
